In assay [1] the test system is RKO (RKOp27) human colon adenocarcinoma cells. Nature of the assay: Alamar Blue cell viability assay, anti-proliferative/cytotoxic activity on proliferating (uninduced) RKOp27 cells. The conditions noted are these: RKOp27 subclone without inducer, 72 hours incubation, read-out: IC50 RKO p27 uninduced (proliferating). It is filed as cell-based. The procedure: The anti-proliferative/cytotoxic activity of the compounds described herein, can be tested on subclones of RKO (RKOp27) human colon adenocarcinoma cells (Schmidt et al., Oncogene 19, 2423-2429; 2000) using the Alamar Blue cell viability assay (described in O'Brien et al. Eur J Biochem 267, 5421-5426, 2000). The compounds are dissolved as 20 mM solutions in dimethylsulfoxide (DMSO) and subsequently diluted in semi-logarithmic steps. DMSO dilutions are further diluted 1:100 into Dulbecco's modified Eagle's medium (DMEM) containing 10% fetal calf serum to a final concentration twice as much as the final concentration in the test. RKO subclones are seeded into 96 well flat bottom plates at a density of 4000 cells per well in a volume of 50 μl per well. 24 hours after seeding the 50 μl each of the compound dilutions in DMEM medium are added into each well of the 96 Well plate. Each compound dilution is tested as quadruplicates. Wells containing untreated control cells are filled with 50 μl DMEM medium containing 1% DMSO. The cells are then incubated with the substances for 72 hours at 37° C. in a humidified atmosphere containing 5% carbon dioxide. To determine the viability of the cells, 10 μl of an Alamar Blue solution (Biosource) are added and the fluorescence is measured at an extinction of 544 nm and an emission of 590 nm. For the calculation of the cell viability the emission value from untreated cells is set as 100% viability and the emission rates of treated cells are set in relation to the values of untreated cells. Viabilities are expressed as % values.
The corresponding IC50 values of the compounds for anti-proliferative/cytotoxic activity are determined from the concentration-effect curves.
Representative IC50 values for anti-proliferation/cytotoxicity determined in the mentioned assay follow from the following table A, in which the numbers of the compound correspond to the numbers of the examples.
(The colour change of resazurin is a common sign of viable cells or microbes.)

In assay [2] the test system is RKO colon adenocarcinoma cells (RKOp27) arrested by the expression of ectopic p27Kip1. Nature of the assay: Alamar Blue cell viability assay on RKOp27 cells arrested by Ponasterone A-induced p27Kip1 expression (cell cycle specific mode of action). It counts as cell-based. The conditions noted are these: Homo sapiens, RKOp27 subclone induced with 10 μM Ponasterone A, 72 hours incubation, read-out: IC50 RKO p27 induced (arrested). The procedure: To determine the cell cycle specific mode of action, subclones of RKO colon adenocarcinoma cells (RKOp27 or RKOp21 as described by Schmidt et al. in Oncogene 19, 2423-2429; 2000) are seeded into 96 well flat bottom plates at a density of 16000 cells per well in a volume of 50 μl per well in DMEM growth medium with 10% FCS containing 10 μM Ponasterone A. 24 hours after seeding the 50 μl each of the compound dilutions in DMEM medium are added into each well of the 96 Well plate. Each compound dilution is tested as quadruplicates. Wells containing untreated control cells are filled with 50 μl DMEM medium containing 1% DMSO. The cells are then incubated with the substances for 72 hours at 37° C. in a humidified atmosphere containing 5% carbon dioxide. To determine the viability of the cells, 10 μl of an Alamar Blue solution (Biosource) are added and the fluorescence was measured at an extinction of 544 nm and an emission of 590 nm. For the calculation of the cell viability the emission value from untreated cells is set as 100% viability and the emission rates of treated cells are set in relation to the values of untreated cells. Viabilities are expressed as % values. Viability is compared of proliferating cells grown in the absence of the inducer Ponasterone A, versus viability of cells arrested by the expression of ectopic p27Kip1 induced by Ponasterone A.

With `CCOC(=O)N1CCc2c(sc(NC(=O)CCn3nccc3C)c2C#N)C1` [Example 20, 3-Cyano-2-[3-(5-methyl-pyrazol-1-yl)-propanoylamino]-4,7-dihydro-5H-thieno[2,3-c]pyridine-6-carboxylic acid ethyl ester], the IC50 (as a rule, the concentration that inhibits the measured activity by half) in assay [1] is 300 to 2000 nM; in assay [2] it was > 100000 nM.
The corresponding values for `CCOC(=O)N1CCc2c(sc(NC(=O)CCC3CCCO3)c2C#N)C1` (centres unmarked) [Example 21, 3-Cyano-2-(3-tetrahydro-furan-2-yl-propanoylamino)-4,7-dihydro-5H-thieno[2,3-c]pyridine-6-carboxylic acid ethyl ester] are ≤ 300 nM and > 100000 nM.
For `CC(C)(C)OC(=O)N1CCc2c(sc(NC(=O)CCc3ccccc3)c2C#N)C1` [Example 22, 3-Cyano-2-(3-phenyl-propanoylamino)-4,7-dihydro-5H-thieno[2,3-c]pyridine-6-carboxylic acid tert-butyl ester], the IC50 in assay [1] was ≤ 300 nM; in assay [2], > 100000 nM.
On the same counts, the results for `CCOC(=O)N1CCc2c(sc(NC(=O)CCc3ccccc3Br)c2C#N)C1` [Example 23, 2-[3-(2-Bromo-phenyl)-propanoylamino]-3-cyano-4,7-dihydro-5H-thieno[2,3-c]pyridine-6-carboxylic acid ethyl ester] are ≤ 300 nM and > 100000 nM.
On the same counts, the results for `COCCOC(=O)N1CCc2c(sc(NC(=O)CCc3ccccc3)c2C#N)C1` [Example 24, 3-Cyano-2-(3-phenyl-propanoylamino)-4,7-dihydro-5H-thieno[2,3-c]pyridine-6-carboxylic acid 2-methoxy-ethyl ester] are ≤ 300 nM and > 100000 nM.
The corresponding values for `N#Cc1c(NC(=O)CCc2ccccc2)sc2c1CCN(C(=O)OCCc1ccccn1)C2` [Example 26, 3-Cyano-2-(3-phenyl-propanoylamino)-4,7-dihydro-5H-thieno[2,3-c]pyridine-6-carboxylic acid 2-pyridin-2-yl-ethyl ester] are ≤ 300 nM and > 100000 nM.
For `N#Cc1c(NC(=O)CCc2ccccc2)sc2c1CCN(C(=O)OCc1ccccn1)C2` [Example 27, 3-Cyano-2-(3-phenyl-propanoylamino)-4,7-dihydro-5H-thieno[2,3-c]pyridine-6-carboxylic acid pyridin-2-ylmethyl ester], the IC50 is ≤ 300 nM in assay [1] and > 100000 nM in assay [2].
For the compound `N#Cc1c(NC(=O)CCc2ccccc2)sc2c1CCN(C(=O)OCc1cccnc1)C2` [Example 28, 3-Cyano-2-(3-phenyl-propanoylamino)-4,7-dihydro-5H-thieno[2,3-c]pyridine-6-carboxylic acid pyridin-3-ylmethyl ester], the IC50 was ≤ 300 nM in assay [1] and > 100000 nM in assay [2].
The corresponding values for `N#Cc1c(NC(=O)CCc2ccccc2)sc2c1CCN(C(=O)OCc1ccncc1)C2` [Example 29, 3-Cyano-2-(3-phenyl-propanoylamino)-4,7-dihydro-5H-thieno[2,3-c]pyridine-6-carboxylic acid pyridin-4-ylmethyl ester] are ≤ 300 nM and > 100000 nM.
On the same counts, the results for `CC1(C)OCC(COC(=O)N2CCc3c(sc(NC(=O)CCc4ccccc4)c3C#N)C2)O1` (centres unmarked) [Example 30, 3-Cyano-2-(3-phenyl-propanoylamino)-4,7-dihydro-5H-thieno[2,3-c]pyridine-6-carboxylic acid 2,2-dimethyl-[1,3]dioxolan-4-ylmethyl ester] are ≤ 300 nM and > 100000 nM.
In the case of `N#Cc1c(NC(=O)CCc2ccccc2)sc2c1CCN(C(=O)OCC(O)CO)C2` (centres unmarked) [Example 31, 3-Cyano-2-(3-phenyl-propanoylamino)-4,7-dihydro-5H-thieno[2,3-c]pyridine-6-carboxylic acid 2,3-dihydroxy-propyl ester], the figures for the IC50 in assay [1] and in assay [2] were ≤ 300 nM and > 100000 nM, respectively.
The corresponding values for `CCOC(=O)N1CCc2c(sc(NC(=O)CCc3cccc4c3OCO4)c2C#N)C1` [Example 32, 2-(3-Benzo[1,3]dioxol-4-yl-propanoylamino)-3-cyano-4,7-dihydro-5H-thieno[2,3-c]pyridine-6-carboxylic acid ethyl ester] are ≤ 300 nM and > 100000 nM.
For `CCOC(=O)N1CCc2c(sc(NC(=O)CCc3cccc4c3OC(F)(F)O4)c2C#N)C1` [Example 33, 3-Cyano-2-[3-(2,2-difluoro-benzo[1,3]dioxol-4-yl)-propanoylamino]-4,7-dihydro-5H-thieno[2,3-c]pyridine-6-carboxylic acid ethyl ester], the IC50 was 300 to 2000 nM in assay [1] and > 100000 nM in assay [2].
The corresponding values for `CCOC(=O)N1CCc2c(sc(NC(=O)CCc3cccc4c3OCCO4)c2C#N)C1` [Example 34, 3-Cyano-2-(3-2,3-dihydro-benzo[1,4]dioxin-5-yl-propanoylamino)-4,7-dihydro-5H-thieno[2,3-c]pyridine-6-carboxylic acid ethyl ester] are 300 to 2000 nM and > 100000 nM.
The corresponding values for `CCOC(=O)N1CCc2c(sc(NC(=O)CCc3cncnc3)c2C#N)C1` [Example 35, 3-Cyano-2-(3-pyrimidin-5-yl-propanoylamino)-4,7-dihydro-5H-thieno[2,3-c]pyridine-6-carboxylic acid ethyl ester] are 300 to 2000 nM and ≥ 40000 nM.
For the compound `CCOC(=O)N1CCc2c(sc(NC(=O)CCc3ccccn3)c2C#N)C1` [Example 36, 3-Cyano-2-(3-pyridin-2-yl-propanoylamino)-4,7-dihydro-5H-thieno[2,3-c]pyridine-6-carboxylic acid ethyl ester], the values for the IC50 in assay [1] and in assay [2] were ≤ 300 nM and > 100000 nM, respectively.
With `COCCOC(=O)N1CCc2c(sc(NC(=O)CCc3cccnc3)c2C#N)C1` [Example 37, 3-Cyano-2-(3-pyridin-3-yl-propanoylamino)-4,7-dihydro-5H-thieno[2,3-c]pyridine-6-carboxylic acid 2-methoxy-ethyl ester], the IC50 in assay [1] is 300 to 2000 nM; in assay [2] it was ≥ 40000 nM.
With `N#Cc1c(NC(=O)CCc2cccnc2)sc2c1CCN(C(=O)OCc1ccccn1)C2` [Example 38, 3-Cyano-2-(3-pyridin-3-yl-propanoylamino)-4,7-dihydro-5H-thieno[2,3-c]pyridine-6-carboxylic acid pyridin-2-ylmethyl ester], the values for the IC50 in assay [1] and in assay [2] were 300 to 2000 nM and > 100000 nM, respectively.
Regarding `N#Cc1c(NC(=O)CCc2cccnc2)sc2c1CCN(C(=O)OCc1cccnc1)C2` [Example 39, 3-Cyano-2-(3-pyridin-3-yl-propanoylamino)-4,7-dihydro-5H-thieno[2,3-c]pyridine-6-carboxylic acid pyridin-3-ylmethyl ester], the IC50 in assay [1] is 300 to 2000 nM; in assay [2] it was > 100000 nM.
Take `N#Cc1c(NC(=O)CCc2cccnc2)sc2c1CCN(C(=O)OCc1ccncc1)C2` [Example 40, 3-Cyano-2-(3-pyridin-3-yl-propanoylamino)-4,7-dihydro-5H-thieno[2,3-c]pyridine-6-carboxylic acid pyridin-4-ylmethyl ester]: the IC50 is 300 to 2000 nM in assay [1] and ≥ 40000 nM in assay [2].
`COCCOC(=O)N1CCc2c(sc(NC(=O)CCc3ccco3)c2C#N)C1` [Example 41, 3-Cyano-2-(3-furan-2-yl-propanoylamino)-4,7-dihydro-5H-thieno[2,3-c]pyridine-6-carboxylic acid 2-methoxy-ethyl ester]: the results for the IC50 in assay [1] and in assay [2] were ≤ 300 nM and > 100000 nM, respectively.
The corresponding values for `N#Cc1c(NC(=O)CCc2ccco2)sc2c1CCN(C(=O)OCc1ccccn1)C2` [Example 42, 3-Cyano-2-(3-furan-2-yl-propanoylamino)-4,7-dihydro-5H-thieno[2,3-c]pyridine-6-carboxylic acid pyridin-2-ylmethyl ester] are ≤ 300 nM and > 100000 nM.
